Where two headings read alike, the source gives them in different places. Bridge positions count the residues as written; N and C are the ends. Square brackets hold non-standard residues; d marks the D form. Peptide text beside a SMILES is read from it. Trp(1-Me) = Cn1cc(C[C@H](N)C(=O)O)c2ccccc21; NMeY = CN[C@@H](Cc1ccc(O)cc1)C(=O)O; NMeV = CN[C@H](C(=O)O)C(C)C; NMeA = CN[C@@H](C)C(=O)O; Nle = CCCC[C@H](N)C(=O)O; Sar = CNCC(=O)O
Experiments:
C3 = target: T1, C3 (Homo sapiens, UniProt P01024); test: ITC analysis of binding to C3; settings: for ΔH / −TΔS / ΔG: ITC; for ΔG: ΔG=ΔH−TΔS; for rKD ITC / ΔΔG / ΔΔH / −TΔΔS: relative to peptide 14
T1 construct: C3 was purified from fresh human plasma; from tissue; host or cells: fresh human plasma (blood bank of the Hospital of the University of Pennsylvania)
T1 sequence (P01024 23-667 limits assumed): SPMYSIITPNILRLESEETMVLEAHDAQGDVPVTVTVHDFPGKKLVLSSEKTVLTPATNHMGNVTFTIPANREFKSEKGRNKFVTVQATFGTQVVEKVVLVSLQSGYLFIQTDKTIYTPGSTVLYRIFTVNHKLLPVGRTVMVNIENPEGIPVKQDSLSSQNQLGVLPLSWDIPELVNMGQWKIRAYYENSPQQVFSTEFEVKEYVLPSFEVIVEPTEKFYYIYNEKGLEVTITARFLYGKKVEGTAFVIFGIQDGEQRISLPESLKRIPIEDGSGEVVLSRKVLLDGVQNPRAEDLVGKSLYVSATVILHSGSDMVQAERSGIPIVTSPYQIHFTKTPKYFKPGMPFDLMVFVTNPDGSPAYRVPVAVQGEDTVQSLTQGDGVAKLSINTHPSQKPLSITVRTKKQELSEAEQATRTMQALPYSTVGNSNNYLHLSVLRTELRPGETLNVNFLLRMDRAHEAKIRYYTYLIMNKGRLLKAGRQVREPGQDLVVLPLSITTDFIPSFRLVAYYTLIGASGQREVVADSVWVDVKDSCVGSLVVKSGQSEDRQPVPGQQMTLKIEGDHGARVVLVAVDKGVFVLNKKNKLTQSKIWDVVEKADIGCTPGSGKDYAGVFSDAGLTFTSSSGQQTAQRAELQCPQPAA
T1 sequence (P01024 672-1663 limits assumed): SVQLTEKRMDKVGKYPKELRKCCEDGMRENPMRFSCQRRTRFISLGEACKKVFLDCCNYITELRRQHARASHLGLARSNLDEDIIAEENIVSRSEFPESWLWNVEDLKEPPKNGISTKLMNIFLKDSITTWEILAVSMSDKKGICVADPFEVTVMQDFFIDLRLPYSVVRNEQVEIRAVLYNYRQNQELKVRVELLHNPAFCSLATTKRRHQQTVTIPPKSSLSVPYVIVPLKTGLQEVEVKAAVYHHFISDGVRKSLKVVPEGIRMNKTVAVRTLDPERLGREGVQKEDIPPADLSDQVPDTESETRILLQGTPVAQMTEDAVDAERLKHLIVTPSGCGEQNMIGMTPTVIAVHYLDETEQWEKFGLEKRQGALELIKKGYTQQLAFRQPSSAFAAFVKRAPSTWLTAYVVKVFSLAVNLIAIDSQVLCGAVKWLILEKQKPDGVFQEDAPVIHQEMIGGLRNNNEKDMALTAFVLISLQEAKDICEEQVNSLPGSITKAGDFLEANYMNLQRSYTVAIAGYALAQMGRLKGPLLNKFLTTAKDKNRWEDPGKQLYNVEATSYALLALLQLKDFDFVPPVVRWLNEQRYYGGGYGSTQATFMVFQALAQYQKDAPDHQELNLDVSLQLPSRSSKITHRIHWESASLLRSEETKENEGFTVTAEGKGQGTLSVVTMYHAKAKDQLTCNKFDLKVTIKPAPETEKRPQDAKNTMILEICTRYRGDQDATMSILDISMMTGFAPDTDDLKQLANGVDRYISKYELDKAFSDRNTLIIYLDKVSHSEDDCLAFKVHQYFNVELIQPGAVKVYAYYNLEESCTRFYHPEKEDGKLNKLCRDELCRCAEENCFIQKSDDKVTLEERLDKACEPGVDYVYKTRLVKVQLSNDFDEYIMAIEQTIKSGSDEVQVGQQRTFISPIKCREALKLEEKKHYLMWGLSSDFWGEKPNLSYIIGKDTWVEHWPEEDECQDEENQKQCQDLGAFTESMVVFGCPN
Description: C3 was purified from fresh human plasma obtained from the blood bank of the Hospital of the University of Pennsylvania. In brief, the plasma was fractionated with 15% (w/v) PEG 3350, and the pellet was resuspended in 20 mM phosphate buffer, pH 7.8, and then subjected to anion-exchange chromatography on a DEAE-HR 40 column (50×5 cm; Millipore Inc., Billerica, Mass.) with the same buffer. Proteins were eluted with 6 L of a linear gradient (15-70%) of 20 mM phosphate buffer, pH 7.8, containing 500 mM NaCl. C3 was further purified on a size-exclusion Superdex 200 26/60 column (Amersham Biosciences) and a Mono S column (Amersham Biosciences) to separate C3 from C3(H2O).
All titrations were performed in PBS (10 mM phosphate buffer with 150 mM NaCl, pH 7.4) at 25° C. using multiple peptide injections of 2-7 μL each. The raw isotherms were corrected for the heats of dilution by subtracting the isotherms representing peptide injections into the buffer. The resulting isotherms were fitted to a single site of sites models using Origin 7.0 software, and the model that produced the lowest χ^2 value was deemed to be appropriate for the respective data set. The Gibbs free energy was calculated as ΔG=ΔH−TΔS. Each experiment was repeated at least twice.

C3b = target: T2, C3b (Homo sapiens, UniProt P01024); test: SPR analysis of binding kinetics to immobilized C3b; settings: for kd: 25° C., PBS-T; for kon: pH 7.4, read-out: ka; for rKD SPR / rka / rkd: relative to peptide 14
T2 construct: biotin (chemical biotinylation of C3b)
T2 sequence (P01024 23-667 limits assumed): as the sequence (P01024 23-667 limits assumed) above
T2 sequence (P01024 749-1663 limits assumed): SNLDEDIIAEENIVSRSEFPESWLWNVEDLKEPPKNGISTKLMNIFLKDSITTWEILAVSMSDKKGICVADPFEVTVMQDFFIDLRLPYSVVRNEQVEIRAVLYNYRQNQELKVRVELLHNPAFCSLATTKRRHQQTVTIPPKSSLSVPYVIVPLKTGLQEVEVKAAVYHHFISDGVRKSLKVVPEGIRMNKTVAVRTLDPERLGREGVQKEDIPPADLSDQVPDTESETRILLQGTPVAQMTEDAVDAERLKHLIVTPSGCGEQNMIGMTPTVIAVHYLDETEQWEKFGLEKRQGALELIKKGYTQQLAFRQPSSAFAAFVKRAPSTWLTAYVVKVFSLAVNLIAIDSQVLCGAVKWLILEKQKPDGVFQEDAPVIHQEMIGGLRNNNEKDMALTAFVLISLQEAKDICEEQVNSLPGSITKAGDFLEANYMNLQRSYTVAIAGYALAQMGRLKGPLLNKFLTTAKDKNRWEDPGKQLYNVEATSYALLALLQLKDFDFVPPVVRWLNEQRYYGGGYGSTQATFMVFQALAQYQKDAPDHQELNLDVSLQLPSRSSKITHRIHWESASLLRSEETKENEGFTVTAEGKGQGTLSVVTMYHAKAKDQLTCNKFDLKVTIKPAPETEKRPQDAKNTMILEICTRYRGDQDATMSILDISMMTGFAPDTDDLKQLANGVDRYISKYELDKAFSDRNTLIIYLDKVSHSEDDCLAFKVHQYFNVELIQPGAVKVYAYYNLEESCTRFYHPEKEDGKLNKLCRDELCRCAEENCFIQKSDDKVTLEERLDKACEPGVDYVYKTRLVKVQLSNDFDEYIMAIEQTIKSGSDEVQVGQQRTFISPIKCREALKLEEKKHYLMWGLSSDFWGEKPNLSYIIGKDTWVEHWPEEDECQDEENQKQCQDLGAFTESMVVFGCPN
Description: (§1) The kinetics of the interaction between C3b and each compstatin analog was analyzed by SPR on a Biacore 3000 instrument (GE Healthcare Corp., Piscataway, N.J.) at 25° C. using PBS-T (10 mM sodium phosphate, 150 mM NaCl, 0.005% Tween-20, pH 7.4) as the running buffer, as described above. In brief, biotinylated C3b (30 μg/mL) was immobilized on a streptavidin-coated sensor chip, and a two-fold serial dilution series (1 μM-500 pM) of each analog was injected for 2 min at 30 μl/min, with a dissociation phase of 5-10 min. Peptide [Trp(Me)^4]-Ac-compstatin was included in each experimental series as an internal control and reference. Data analysis was performed using Scrubber (BioLogic Software, Campbell, Australia). The signals from an untreated flow cell and an ensemble of buffer blank injections were subtracted to correct for buffer effects and injection artifacts. Processed biosensor data were globally fitted to a 1:1 Langmuir binding model, and the equilibrium dissociation constant (KD) was calculated from the equation KD=kd/ka. Peptide solutions were injected in duplicate in every experiment, and each screening assay was performed at least twice.
as §1, with “in Example 1.” for “above.”, “μg/ml)” for “μg/mL)”, “Peptide [Trp(Me)^4]-Ac-compstatin was included in each experimental series as an internal control and reference.” left out

[1] = tested on: classical pathway of complement; test: Inhibition of classical pathway complement activation, ELISA in human serum; type: biochemical; settings: for IC50: read-out: IC50; for rP: relative potency compared to peptide 14; for inhibition of complement activation, result in words: ELISA, N-methylation scan
Description: The ability of the compstatin analogs to inhibit the activation of the classical pathway of complement was assessed by ELISA (Mallik et al., 2005, J Med Chem 48:274-86). In brief, complement was activated in human serum using an antigen-antibody complex in the presence or absence of compstatin analogs, and the deposition of C3 fragments on the plate surface was detected using an HRP-conjugated polyclonal anti-C3 antibody. […] The percent inhibition was plotted against the peptide concentration, and the resulting data set was fitted to the logistic dose-response function using Origin 7.0 software. IC50 values were obtained from the fitted parameters that produced the lowest χ^2 value. Each analog was assayed at least three to seven times.
The ability of the compstatin analogs to inhibit the activation of the classical pathway of complement was assessed by ELISA as described in Example 1. Each conjugate was assayed at least three times.

Molecule	ΔH (C3) [kcal/mol]	−TΔS (C3) [kcal/mol]	ΔG (C3) [kcal/mol]	rKD ITC (C3)	ΔΔG (C3) [kcal/mol]	ΔΔH (C3) [kcal/mol]	−TΔΔS (C3) [kcal/mol]	kd (C3b; SPR)	kon (C3b) [M⁻¹ s⁻¹]	rKD SPR (C3b)	rka (C3b)	rkd (C3b)	IC50 ([1]; Table 1-2) [nM]	IC50 ([1]; exemplary analogs table) [nM]	rP [1]	fold stronger affinity than peptide 14 (C3b; SPR)	inhibition of complement activation, result in words [1]
CC[C@H](C)[C@H](NC(=O)[C@@H]1CSSC[C@H](NC(=O)[C@@H](NC(C)=O)[C@@H](C)CC)C(=O)N[C@@H](C(C)C)C(=O)N[C@@H](Cc2cn(C)c3ccccc23)C(=O)N[C@@H](CCC(N)=O)C(=O)N[C@@H](CC(=O)O)C(=O)N[C@@H](Cc2c[nH]c3ccccc23)C(=O)NCC(=O)N[C@@H](C)C(=O)N[C@@H](Cc2c[nH]cn2)C(=O)N[C@@H](CCCNC(=N)N)C(=O)N1)C(N)=O [Peptide 16]	-16.6	5.7	-10.9	1.2	-0.2	1.0	-1.3	11.0 10^−3/s	1e+06	1.1	1.0	1.0					
CC[C@H](C)[C@H](NC(C)=O)C(=O)N[C@H]1CSSC[C@@H](C(=O)N[C@@H](CC(C)C)C(N)=O)NC(=O)[C@H](CCCNC(=N)N)NC(=O)[C@H](Cc2c[nH]cn2)NC(=O)[C@H](C)NC(=O)CN(C)C(=O)[C@H](Cc2c[nH]c3ccccc23)NC(=O)[C@H](CC(=O)O)NC(=O)[C@H](CCC(N)=O)NC(=O)[C@H](Cc2cn(C)c3ccccc23)NC(=O)[C@H](C(C)C)NC1=O [Peptide 18, Ac−Ic[CV(^1−MeW)QDW(^N−MeG)AHRC]L-NH2] (Ac-ICV[Trp(1-Me)]QDW[Sar]AHRCL-NH2; disulfide 2-12)								6.0 10^−3/s	1.3e+06	2.6	1.3	1.9	108	108	1.9		
CCCC[C@H](NC(=O)[C@@H]1CSSC[C@H](NC(=O)[C@@H](NC(C)=O)[C@@H](C)CC)C(=O)N[C@@H](C(C)C)C(=O)N[C@@H](Cc2cn(C)c3ccccc23)C(=O)N[C@@H](CCC(N)=O)C(=O)N[C@@H](CC(=O)O)C(=O)N[C@@H](Cc2c[nH]c3ccccc23)C(=O)N(C)CC(=O)N[C@@H](C)C(=O)N[C@@H](Cc2c[nH]cn2)C(=O)N[C@@H](CCCNC(=N)N)C(=O)N1)C(N)=O [Peptide 19, Ac−Ic[CV(^1−MeW)QDW(^N−MeG)AHRC](Nle)-NH2] (Ac-ICV[Trp(1-Me)]QDW[Sar]AHRC[Nle]-NH2; disulfide 2-12)								6.6 10^−3/s	1.5e+06	2.7	1.5	1.7	109	109	1.9		
CC[C@H](C)[C@H](NC(C)=O)C(=O)N[C@H]1CSSC[C@@H](C(=O)N(C)[C@H](C(N)=O)[C@@H](C)CC)NC(=O)[C@H](CCCNC(=N)N)NC(=O)[C@H](Cc2c[nH]cn2)NC(=O)[C@H](C)NC(=O)CN(C)C(=O)[C@H](Cc2c[nH]c3ccccc23)NC(=O)[C@H](CC(=O)O)NC(=O)[C@H](CCC(N)=O)NC(=O)[C@H](Cc2cn(C)c3ccccc23)NC(=O)[C@H](C(C)C)NC1=O [Peptide 21, Ac−Ic[CV(^1−MeW)QDW(^N−MeG)AHRC](^N−MeI)-NH2]	-17.1	5.7	-11.4	3.3	-0.7	0.5	-1.3	3.5 10^−3/s	1.5e+06	5.2	1.5	3.2	62	62	3.3	more than 5 fold	
Ac-I[C(NMe)VYQDWGAHRC]T-NH2 (Ac-IC[NMeV]YQDWGAHRCT-NH2; disulfide 2-12; SMILES CC[C@H](C)[C@H](NC(C)=O)C(=O)N[C@H]1CSSC[C@@H](C(=O)N[C@H](C(N)=O)[C@@H](C)O)NC(=O)[C@H](CCCNC(=N)N)NC(=O)[C@H](Cc2c[nH]cn2)NC(=O)[C@H](C)NC(=O)CNC(=O)[C@H](Cc2c[nH]c3ccccc23)NC(=O)[C@H](CC(=O)O)NC(=O)[C@H](CCC(N)=O)NC(=O)[C@H](Cc2ccc(O)cc2)NC(=O)[C@H](C(C)C)N(C)C1=O) [Peptide 3]																	completely inactive
Ac-I[CV(NMe)YQDWGAHRC]T-NH2 (Ac-ICV[NMeY]QDWGAHRCT-NH2; disulfide 2-12; SMILES CC[C@H](C)[C@H](NC(C)=O)C(=O)N[C@H]1CSSC[C@@H](C(=O)N[C@H](C(N)=O)[C@@H](C)O)NC(=O)[C@H](CCCNC(=N)N)NC(=O)[C@H](Cc2c[nH]cn2)NC(=O)[C@H](C)NC(=O)CNC(=O)[C@H](Cc2c[nH]c3ccccc23)NC(=O)[C@H](CC(=O)O)NC(=O)[C@H](CCC(N)=O)NC(=O)[C@H](Cc2ccc(O)cc2)N(C)C(=O)[C@H](C(C)C)NC1=O) [Peptide 4]																	completely inactive
Ac-I[CVYQDWG(NMe)AHRC]T-NH2 (Ac-ICVYQDWG[NMeA]HRCT-NH2; disulfide 2-12; SMILES CC[C@H](C)[C@H](NC(C)=O)C(=O)N[C@H]1CSSC[C@@H](C(=O)N[C@H](C(N)=O)[C@@H](C)O)NC(=O)[C@H](CCCNC(=N)N)NC(=O)[C@H](Cc2c[nH]cn2)NC(=O)[C@H](C)N(C)C(=O)CNC(=O)[C@H](Cc2c[nH]c3ccccc23)NC(=O)[C@H](CC(=O)O)NC(=O)[C@H](CCC(N)=O)NC(=O)[C@H](Cc2ccc(O)cc2)NC(=O)[C@H](C(C)C)NC1=O) [Peptide 9]																	completely inactive

— US9371365B2, “Modified compstatin with peptide backbone and C-terminal modifications” (The Trustees of the University of Pennsylvania, priority 2009, dated 2016)
